Laboratory results: patent US8277842B1, “Enteric-coated HT-2157 compositions and methods of their use” (Dart NeuroScience (Cayman) Ltd., priority 2012, dated 2012)

Tests used:
[1] = Repeat-dose animal toxicology studies, PO; type: in vivo, mice, rats, dogs; conditions: non-enteric coated
[2] = Metabolite HT-2800 in microsomes incubated with HT-2157, dog; type: in vitro ADME
Experimental: (§1) Such HT-2157 administration studies were carried out in several animal models, including rats, dogs (as well as mice). In this regard, the major human metabolite of HT-2157, HT-2800, was found in human, mouse, and monkey microsomes following incubation with the HT-2157 compound, but it was not detected in rat or dog microsomes or in plasma collected from dogs dosed with HT-2157.

[3] = Ninety-day study with HT-2157, methemoglobin formation, mice; type: in vivo
Description: (§2) These findings indicate that a process of hemolytic anemia and compensatory hematopoietic response to anemia occurred in the animals. The hemolytic anemia was reversible upon discontinuation of drug treatment. In animals at high doses, there were also increases in methemoglobin of between 30 and 40% in treatment as compared to control animals. These increases resolved 1 to 2 weeks after discontinuation of dosing.

[4] = Metabolite HT-2800 in microsomes incubated with HT-2157, mouse; type: in vitro ADME
Experimental: as §1

[5] = Ninety-day study with HT-2157, methemoglobin formation, rats; type: in vivo
Description: as §2

[6] = 28-day oral toxicity study with non-enteric coated HT-2157, dog; type: in vivo; conditions: for Cmax / AUC(0-t): plasma, 50 mg/kg/day, at NOEL; for AUC(0-t): read-out: AUC0-24 of HT-2157 in plasma
Experimental: (§3) Consequently, separate toxicokinetic studies directed to […] (without an enteric coating) were performed in rat and in dog, which is considered the more sensitive species. […] In these studies, the non-toxic dose level for oral administration of HT-2157 over 28 days was 30 mg/kg/day for female rats, 100 mg/kg/day for male rats and 50 mg/kg/day for dogs (both sexes). Table 1 lists the mean Cmax and AUC values of HT-2157 in the plasma associated with these dosages: […]

[7] = Metabolite HT-2800 in plasma of dogs dosed with HT-2157; type: in vivo, dog; conditions: plasma collected from dogs dosed with HT-2157
Experimental: as §1

[8] = Ninety-day study with HT-2157, methemoglobin formation, dogs; type: in vivo
Description: as §2

in vivo = conditions: rat, po; for AUC(0-t): AUC0-24 of HT-2157 in plasma; for Cmax: Cmax of HT-2157 in plasma; for NOEL / NOEL (first NOEL column) / non-toxic dose level: 28 days
Experimental: as §3

[9] = after systemic administration; Oegren et al. 2006; cited from earlier work
[10] = Metabolite HT-2800 in microsomes incubated with HT-2157, monkey; type: in vitro ADME
Experimental: as §1

[11] = Metabolite HT-2800 in microsomes incubated with HT-2157, rat; type: in vitro ADME
Experimental: as §1

[12] = Metabolite HT-2800 in microsomes incubated with HT-2157, human; type: in vitro ADME
Experimental: as §1

[13] = female, female dog, day 1 of dosing
[14] = female, female dog, day 28 of dosing
[15] = male, male dog, day 1 of dosing
[16] = male, male dog, day 28 of dosing

For `O=C1C(=Nc2cccc(C(F)(F)F)c2)c2ccccc2N1c1ccc(O)cc1` [HT-2800], which “drug-related findings in repeat-dose toxicology” value ([1]; rats up to 6 months, dogs 9 months) is on record?
The value was “dose-dependent shifts in hemoglobin fractions (methemoglobin, carboxyhemoglobin, oxyhemoglobin) and mild to moderate reversible hemolytic anemia with associated compensatory responses”.

Which “metabolite HT-2800 following incubation with HT-2157” value [2] does the source give for `O=C1C(=Nc2cccc(C(F)(F)F)c2)c2ccccc2N1c1ccccc1` [HT-2157] here?
Its value is “not detected”.

And the “dose with statistically significant methemoglobin formation” value [3]?
The value was 750 mg/kg/day.

And the “metabolite HT-2800 following incubation with HT-2157” value [4]?
The value was “found”.

What about the “drug-related findings in repeat-dose toxicology” value ([1]; mice up to 3 months, rats up to 1 year, dogs up to 9 months) of the same compound?
The value was “dose-dependent shifts in hemoglobin fractions (methemoglobin, carboxyhemoglobin, oxyhemoglobin) and mild to moderate reversible hemolytic anemia with associated compensatory responses”.

What about the “dose with statistically significant methemoglobin formation” value [5] of the same compound?
Its value is 150 mg/kg/day.

What about the non-toxic dose level ([6]; both, in vivo, 28 days) of the same compound?
Its non-toxic dose level is 50 mg/kg/day.

And the “NOEL” value ([6]; female, in vivo, 28 days)?
The value was 1000.

What about the “NOEL (first NOEL column)” value ([6]; female, in vivo, 28 days) of the same compound?
The value was 50.

What about the Cmax [6, 13] of the same compound?
The Cmax was 162 ng/mL.

And the AUC(0-t) [6, 13]?
Its AUC(0-t) is 571 ng·h/mL.

And the Cmax [6, 14]?
The Cmax was 104 ng/mL.

And the AUC(0-t) [6, 14]?
The AUC(0-t) was 799 ng·h/mL.

And the “NOEL” value ([6]; male, in vivo, 28 days)?
Its value is 1000.

What about the “NOEL (first NOEL column)” value ([6]; male, in vivo, 28 days) of the same compound?
The value was 50.

What about the Cmax [6, 15] of the same compound?
Its Cmax is 99 ng/mL.

And the AUC(0-t) [6, 15]?
The AUC(0-t) was 676 ng·h/mL.

And the Cmax [6, 16]?
Its Cmax is 87.1 ng/mL.

And the AUC(0-t) [6, 16]?
The AUC(0-t) was 550 ng·h/mL.

And the “metabolite HT-2800 in plasma” value [7]?
Its value is “not detected”.

What about the “dose with statistically significant methemoglobin formation” value [8] of the same compound?
Its value is ≥ 30 mg/kg/day.

What about the “AUC0-24 of HT-2157 in plasma” value (in vivo; female, 30 mg/kg/day) of the same compound?
Its value is 235 ng·h/mL.

What about the AUC(0-t) (in vivo; female, 30 mg/kg/day) of the same compound?
Its AUC(0-t) is 283 ng·h/mL.

And the Cmax (in vivo; female, 30 mg/kg/day)?
Its Cmax is 109 ng/mL.

And the “NOEL” value (in vivo; female)?
The value was 177.

And the “NOEL (first NOEL column)” value (in vivo; female)?
The value was 30.

And the non-toxic dose level (in vivo; female)?
Its non-toxic dose level is 30 mg/kg/day.

And the “AUC0-24 of HT-2157 in plasma” value (in vivo; male, 100 mg/kg/day)?
Its value is 1445 ng·h/mL.

And the AUC(0-t) (in vivo; male, 100 mg/kg/day)?
The AUC(0-t) was 1380 ng·h/mL.

And the Cmax (in vivo; male, 100 mg/kg/day)?
Its Cmax is 252 ng/mL.

And the “NOEL” value (in vivo; male)?
The value was 590.

What about the “NOEL (first NOEL column)” value (in vivo; male) of the same compound?
The value was 100.

What about the non-toxic dose level (in vivo; male) of the same compound?
The non-toxic dose level was 100 mg/kg/day.

What about the blood-brain barrier passage [9] of the same compound?
Its blood-brain barrier passage is “can cross the blood-brain barrier”.

And the “metabolite HT-2800 following incubation with HT-2157” value [10]?
The value was “found”.

And the “metabolite HT-2800 following incubation with HT-2157” value [11]?
Its value is “not detected”.

And the “metabolite HT-2800 following incubation with HT-2157” value [12]?
The value was “found”.
